According to patent EP0598515A1, “Method for herbicidal activity-enhancing, activity-enhanced herbicidal composition and activity-enhancing composition” (ISHIHARA SANGYO KAISHA LTD., priority 1992, dated 1994):
Like-named read-outs stand apart in the source and are kept apart here.

Experiments:
Format in all cases: in vivo
[1] = test system: Crabgrass (Digitaria sanguinalis L.); experiment: Test Example 7: pot test, Example 8 suspension concentrate with Frigate; conditions: 20 days after treatment, duplicate; for inhibition at 5 g/ha / inhibition at 10 g/ha / inhibition at 20 g/ha / inhibition at 40 g/ha: Digitaria sanguinalis, 480 h, read-out: Growth Inhibition (%) of Crabgrass; for inhibition at 20 g/ha: Compound A 20 g/ha; for inhibition at 40 g/ha: Compound A 40 g/ha
Description: Crabgrass (Digitaria sanguinalis L.) seeds were sown in 1/1,000,000-hectare pots filled with upland soil and arranged in a duplicate system. When the crabgrass plants grew to a 3- to 3.3-leaf stage, the oil-based suspension concentrate obtained in Example 8 was diluted with 500 liters/hectare of water containing a predetermined amount of Frigate and was applied foliarly to the plants with a small spray gun.
Twenty days after treatment, the growth inhibition of plants was evaluated with visual observation in the same manner as in Teat Example 1 and are shown in Table 7.

[2] = test system: Common lambsquarters (Chenopodium album L.); experiment: Test Example 8: pot test, Example 8 suspension concentrate with Frigate; conditions: 408 h, 17 days after treatment, duplicate, read-out: Growth Inhibition (%) of Common Lambsquarters; for inhibition at 5 g/ha: Compound A 5 g/ha; for inhibition at 10 g/ha: Compound A 10 g/ha; for inhibition at 20 g/ha: Compound A 20 g/ha; for inhibition at 40 g/ha: Compound A 40 g/ha
Description: Common lambsquarters (Chenopodium album L.) seeds were sown in 1/1,000,000-hectare pots filled with upland soil and arranged in a duplicate system. When the common lambsquarters plants grew to a 8- to 9-leaf stage, the oil-based suspension concentrate obtained in Example 8 was diluted with 500 liters/hectare of water containing a predetermined amount of Frigate and was applied foliarly to the plants with a small spray gun.
Seventeen days after treatment, the growth inhibition of plants was evaluated with visual observation in the same manner as in Test Example 1 and are shown in Table 8.

[3] = test system: Common lambsquarters (Chenopodium album L.); experiment: Test Example 12: field plot test, growth inhibition; conditions: Example 8 suspension concentrate, 27 days after treatment, field plots; for inhibition at 40 g/ha: Compound A 40 g/ha; for inhibition at 60 g/ha: Compound A 60 g/ha
Text: (§1) In field plots of 3 m² (1 m × 3 m) unit arranged in a duplicate system, seeds of corn, crabgrass (Digitaria sanguinalis L.), green foxtail (Setaria viridis L.), common lambsquarters (Chenopodium album L.), slender amaranth (Amaranthus virdis L.) and velvetleaf (Abutilon theophrasti MEDIC.) were sown and grown. Also, barnyardgrass (Echinochloa crus-galli L.), henbit (Lamiun amplexlcaule L.), pale smartweed (Polygonum lapathifolium L.) and threeseeded copperleaf (Acalypha australis L.) were allowed to grow spontaneously. When the plants grew to certain stages (corn: 6.1 to 6.5-leaf stage, crabgrass: 2.0 to 4.5-leaf stage, green foxtail: 3.0 to 4.5-leaf stage, common lambsquarters: 4.0 to 8.0-leaf stage, slender amaranth: 1.0 to 4.0-leaf stage, velvetleaf: 2.0 to 3.5-leaf stage, barnyardgrass: 3.0 to 4.5-leaf stage, henbit: 2.0 to 5.0 cm, pale smartweed: 3.0 to 5.0-leaf stage and threeseeded copperleaf: 2.0 to 4.0-leaf stage), the oil-based suspension concentrate obtained in Example 8 was diluted with 200 liters/hectare of water containing a predetermined amount of Frigate and was applied foliarly to the plants with a small spray gun.
(§2) Twenty seven days after treatment, the growth inhibition of plants except for corn plants was evaluated with visual observation in the same manner as in Test Example 1 and are shown in Table 12.

[4] = test system: Crabgrass (Digitaria sanguinalis L.); experiment: as above; conditions: 648 h, Example 8 suspension concentrate, 27 days after treatment, field plots, read-out: Growth Inhibition (%) DS; for inhibition at 40 g/ha: Compound A 40 g/ha; for inhibition at 60 g/ha: Compound A 60 g/ha
Text: as §1, §2

[5] = test system: Velvetleaf (Abutilon theophrasti MEDIC.); experiment: as above; conditions: Example 8 suspension concentrate, 27 days after treatment, field plots; for inhibition at 40 g/ha: Compound A 40 g/ha
Text: as §1, §2

[6] = test system: henbit (Lamiun amplexlcaule L.); experiment: as above; conditions: 648 h, Example 8 suspension concentrate, 27 days after treatment, field plots, read-out: Growth Inhibition (%) LA
Text: as §1, §2

[7] = test system: slender amaranth (Amaranthus virdis L.); experiment: as above; conditions: 648 h, Example 8 suspension concentrate, 27 days after treatment, field plots, read-out: Growth Inhibition (%) AV; for inhibition at 40 g/ha: Compound A 40 g/ha; for inhibition at 60 g/ha: Compound A 60 g/ha
Text: as §1, §2

[8] = test system: threeseeded copperleaf (Acalypha australis L.); experiment: as above; conditions: Example 8 suspension concentrate, 27 days after treatment, field plots; for inhibition at 40 g/ha: Compound A 40 g/ha
Text: as §1, §2

[9] = Frigate 0.125 % by volume, Compound A 5 g/ha
[10] = Chenopodium album, 648 h, Frigate 0.2 % by volume, read-out: Growth Inhibition (%) CA
[11] = Chenopodium album, 648 h, Frigate: No addition, read-out: Growth Inhibition (%) CA
[12] = Frigate 0.2 % by volume, Compound A 20 g/ha
[13] = Frigate 0.2 % by volume, Compound A 30 g/ha
[14] = Frigate 0.2 % by volume, Compound A 60 g/ha

COc1cc(OC)nc(NC(=O)NS(=O)(=O)c2ncccc2C(=O)N(C)C)n1 [Compound A, N-[(4,6-dimethoxypyrimidin-2-yl)aminocarbonyl]-3-dimethylaminocarbonyl-2-pyridinesulfonamide]
inhibition at 5 g/ha [1, 9]: 40% | inhibition at 10 g/ha ([1]; Frigate 0.125 % by volume, Compound A 10 g/ha): 85% | inhibition at 20 g/ha ([1]; Frigate 0.125 % by volume): 90% | inhibition at 40 g/ha ([1]; Frigate 0.125 % by volume): 100% | inhibition at 5 g/ha ([1]; Frigate 0.25 % by volume, Compound A 5 g/ha): 50% | inhibition at 10 g/ha ([1]; Frigate 0.25 % by volume, Compound A 10 g/ha): 95% | inhibition at 20 g/ha ([1]; Frigate 0.25 % by volume): 100% | inhibition at 40 g/ha ([1]; Frigate 0.25 % by volume): 100% | inhibition at 5 g/ha ([1]; Frigate 0.5 % by volume, Compound A 5 g/ha): 75% | inhibition at 10 g/ha ([1]; Frigate 0.5 % by volume, Compound A 10 g/ha): 95% | inhibition at 20 g/ha ([1]; Frigate 0.5 % by volume): 100% | inhibition at 40 g/ha ([1]; Frigate 0.5 % by volume): 98% | inhibition at 5 g/ha ([1]; Frigate: No addition, Compound A 5 g/ha): 0% | inhibition at 20 g/ha ([1]; Frigate: No addition): 70% | inhibition at 40 g/ha ([1]; Frigate: No addition): 85% | Growth Inhibition (%) of Crabgrass [1, 9]: 45% | Growth Inhibition (%) of Crabgrass ([1]; Frigate: No addition, Compound A 10 g/ha): 5% | inhibition at 5 g/ha ([2]; Frigate 0.25 % by volume): 50% | inhibition at 10 g/ha ([2]; Frigate 0.25 % by volume): 60% | inhibition at 20 g/ha ([2]; Frigate 0.25 % by volume): 80% | inhibition at 40 g/ha ([2]; Frigate 0.25 % by volume): 90% | inhibition at 5 g/ha ([2]; Frigate 0.5 % by volume): 55% | inhibition at 10 g/ha ([2]; Frigate 0.5 % by volume): 70% | inhibition at 20 g/ha ([2]; Frigate 0.5 % by volume): 85% | inhibition at 40 g/ha ([2]; Frigate 0.5 % by volume): 90% | inhibition at 5 g/ha ([2]; Frigate: No addition): 0% | inhibition at 10 g/ha ([2]; Frigate: No addition): 0% | inhibition at 20 g/ha ([2]; Frigate: No addition): 50% | inhibition at 40 g/ha ([2]; Frigate: No addition): 80% | inhibition at 20 g/ha ([3]; Chenopodium album, 648 h, Frigate 0.2 % by volume, Compound A 20 g/ha, read-out: Growth Inhibition (%) CA): 80% | inhibition at 30 g/ha ([3]; Chenopodium album, 648 h, Frigate 0.2 % by volume, Compound A 30 g/ha, read-out: Growth Inhibition (%) CA): 80% | inhibition at 40 g/ha [3, 10]: 95% | inhibition at 60 g/ha [3, 10]: 99% | inhibition at 40 g/ha [3, 11]: 40% | inhibition at 60 g/ha [3, 11]: 50% | Growth Inhibition (%) CA [3, 12]: 75% | inhibition at 20 g/ha [4, 12]: 90% | inhibition at 30 g/ha [4, 13]: 95% | inhibition at 40 g/ha ([4]; Frigate 0.2 % by volume): 95% | inhibition at 60 g/ha ([4]; Frigate 0.2 % by volume): 99% | inhibition at 40 g/ha ([4]; Frigate: No addition): 95% | inhibition at 60 g/ha ([4]; Frigate: No addition): 98% | inhibition at 20 g/ha ([5]; Abutilon theophrasti, 648 h, Frigate 0.2 % by volume, Compound A 20 g/ha): 75% | inhibition at 30 g/ha ([5]; Abutilon theophrasti, 648 h, Frigate 0.2 % by volume, Compound A 30 g/ha): 80% | inhibition at 40 g/ha ([5]; Abutilon theophrasti, 648 h, Frigate 0.2 % by volume): 80% | inhibition at 60 g/ha ([5]; Abutilon theophrasti, 648 h, Frigate 0.2 % by volume, Compound A 60 g/ha): 95% | inhibition at 40 g/ha ([5]; Abutilon theophrasti, 648 h, Frigate: No addition): 70% | inhibition at 60 g/ha ([5]; Abutilon theophrasti, 648 h, Frigate: No addition, Compound A 60 g/ha): 65% | Growth Inhibition (%) AT [5, 14]: 100% | inhibition at 20 g/ha [6, 12]: 98% | inhibition at 30 g/ha [6, 13]: 98% | inhibition at 40 g/ha ([6]; Frigate 0.2 % by volume, Compound A 40 g/ha): 98% | inhibition at 60 g/ha ([6]; Frigate: No addition, Compound A 60 g/ha): 98% | inhibition at 20 g/ha [7, 12]: 100% | inhibition at 30 g/ha [7, 13]: 99% | inhibition at 40 g/ha ([7]; Frigate 0.2 % by volume): 99% | inhibition at 60 g/ha ([7]; Frigate 0.2 % by volume): 99% | inhibition at 40 g/ha ([7]; Frigate: No addition): 99% | inhibition at 60 g/ha ([7]; Frigate: No addition): 99% | inhibition at 20 g/ha ([8]; Acalypha australis, 648 h, Frigate 0.2 % by volume, Compound A 20 g/ha, read-out: Growth Inhibition (%) AA): 90% | inhibition at 30 g/ha ([8]; Acalypha australis, 648 h, Frigate 0.2 % by volume, Compound A 30 g/ha, read-out: Growth Inhibition (%) AA): 90% | inhibition at 40 g/ha ([8]; Acalypha australis, 648 h, Frigate 0.2 % by volume, read-out: Growth Inhibition (%) AA): 95% | inhibition at 60 g/ha ([8]; Acalypha australis, 648 h, Frigate 0.2 % by volume, Compound A 60 g/ha, read-out: Growth Inhibition (%) AA): 90% | inhibition at 40 g/ha ([8]; Acalypha australis, 648 h, Frigate: No addition, read-out: Growth Inhibition (%) AA): 90% | inhibition at 60 g/ha ([8]; Acalypha australis, 648 h, Frigate: No addition, Compound A 60 g/ha, read-out: Growth Inhibition (%) AA): 90% | Growth Inhibition (%) AA [8, 14]: 98%
